Test results published in PubChem BioAssay (NCI).
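Exposure lasted 48 hours, with cells grown in 96-well plates and compounds tested at five concentrations. TGI: total growth inhibition.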

Assays:
Assay in all cases: NCI anticancer screen, dose series, 48 h
UACC-62 melanoma = system: UACC-62 melanoma
DMS 273 small cell lung = system: DMS 273 small cell lung
HOP-18 NSCLC = system: HOP-18 NSCLC
NCI-H460 lung = system: NCI-H460 lung
A498 renal = system: A498 renal
OVCAR-5 ovarian = system: OVCAR-5 ovarian
RPMI-8226 leukemia = system: RPMI-8226 leukemia
SK-OV-3 ovarian = system: SK-OV-3 ovarian
TK-10 renal = system: TK-10 renal
SK-MEL-28 melanoma = system: SK-MEL-28 melanoma
SF-539 CNS = system: SF-539 CNS
DMS 114 small cell lung = system: DMS 114 small cell lung
COLO 205 colon = system: COLO 205 colon
CAKI-1 renal = system: CAKI-1 renal
LXFL 529 NSCLC = system: LXFL 529 NSCLC
U251 CNS = system: U251 CNS
HCT-15 colon = system: HCT-15 colon
SW-620 colon = system: SW-620 colon
SNB-75 CNS = system: SNB-75 CNS
IGROV1 ovarian = system: IGROV1 ovarian
NCI-H226 lung = system: NCI-H226 lung
UACC-257 melanoma = system: UACC-257 melanoma
M14 melanoma = system: M14 melanoma
SF-268 CNS = system: SF-268 CNS
HOP-92 NSCLC = system: HOP-92 NSCLC
SNB-78 CNS = system: SNB-78 CNS
SNB-19 CNS = system: SNB-19 CNS
SK-MEL-5 melanoma = system: SK-MEL-5 melanoma
DLD-1 colon = system: DLD-1 colon
MOLT-4 leukemia = system: MOLT-4 leukemia
A549 NSCLC = system: A549 NSCLC
HCT-116 colon = system: HCT-116 colon
RXF 393 renal = system: RXF 393 renal
SF-295 CNS = system: SF-295 CNS
UO-31 renal = system: UO-31 renal
NCI-H23 lung = system: NCI-H23 lung
KM20L2 colon = system: KM20L2 colon
SR leukemia = system: SR leukemia
SN12C renal = system: SN12C renal
OVCAR-8 ovarian = system: OVCAR-8 ovarian
OVCAR-4 ovarian = system: OVCAR-4 ovarian
HCC-2998 colon = system: HCC-2998 colon
HT29 colon = system: HT29 colon
KM12 colon = system: KM12 colon
M19-MEL melanoma = system: M19-MEL melanoma
EKVX NSCLC = system: EKVX NSCLC
MALME-3M melanoma = system: MALME-3M melanoma
HOP-62 NSCLC = system: HOP-62 NSCLC
ACHN renal = system: ACHN renal
LOX IMVI melanoma = system: LOX IMVI melanoma
T-47D breast = system: T-47D breast
MDA-N = system: MDA-N
HL-60(TB) leukemia = system: HL-60(TB) leukemia
DU-145 prostate = system: DU-145 prostate
OVCAR-3 ovarian = system: OVCAR-3 ovarian
NCI-H522 lung = system: NCI-H522 lung
NCI/ADR-RES ovarian = system: NCI/ADR-RES ovarian
HS 578T breast = system: HS 578T breast
CCRF-CEM leukemia = system: CCRF-CEM leukemia
786-0 renal = system: 786-0 renal
K-562 leukemia = system: K-562 leukemia
PC-3 prostate = system: PC-3 prostate
MDA-MB-231 breast = system: MDA-MB-231 breast
MCF7 breast = system: MCF7 breast
SK-MEL-2 melanoma = system: SK-MEL-2 melanoma
BT-549 breast = system: BT-549 breast
MDA-MB-435 = system: MDA-MB-435

## Cn1cnc([N+](=O)[O-])c1Sc1nc2cc(Cl)c(F)cc2[nH]1
UACC-62 melanoma
  TGI: 28.6 µM
DMS 273 small cell lung
  TGI: 17.2 µM
HOP-18 NSCLC
  TGI: 29 µM
NCI-H460 lung
  TGI: 27.7 µM
A498 renal
  TGI: 51 µM
OVCAR-5 ovarian
  TGI: > 100 µM
RPMI-8226 leukemia
  TGI: 40.3 µM
SK-OV-3 ovarian
  TGI: 61.9 µM
TK-10 renal
  TGI: 33 µM
SK-MEL-28 melanoma
  TGI: 27.3 µM
SF-539 CNS
  TGI: 16.7 µM
DMS 114 small cell lung
  TGI: 20.7 µM
COLO 205 colon
  TGI: 22 µM
CAKI-1 renal
  TGI: 14.4 µM
LXFL 529 NSCLC
  TGI: 19.2 µM
U251 CNS
  TGI: 24 µM
HCT-15 colon
  TGI: 17.6 µM
SW-620 colon
  TGI: 22.4 µM
SNB-75 CNS
  TGI: 39.3 µM
IGROV1 ovarian
  TGI: 35.8 µM
NCI-H226 lung
  TGI: 33 µM
UACC-257 melanoma
  TGI: 25.2 µM
M14 melanoma
  TGI: 27.6 µM
SF-268 CNS
  TGI: 29.5 µM
HOP-92 NSCLC
  TGI: 28.9 µM
SNB-78 CNS
  TGI: 25.9 µM
SNB-19 CNS
  TGI: > 100 µM
SK-MEL-5 melanoma
  TGI: 24 µM
DLD-1 colon
  TGI: 22.7 µM
MOLT-4 leukemia
  TGI: 6.29 µM
A549 NSCLC
  TGI: 54.3 µM
HCT-116 colon
  TGI: 20.6 µM
RXF 393 renal
  TGI: 9.93 µM
SF-295 CNS
  TGI: > 100 µM
UO-31 renal
  TGI: 27.6 µM
NCI-H23 lung
  TGI: 31.3 µM
KM20L2 colon
  TGI: 26.9 µM
SR leukemia
  TGI: 12.4 µM
SN12C renal
  TGI: 29.7 µM
OVCAR-8 ovarian
  TGI: 23.2 µM
OVCAR-4 ovarian
  TGI: 21 µM
HCC-2998 colon
  TGI: 20.7 µM
HT29 colon
  TGI: 47.3 µM
KM12 colon
  TGI: 36.6 µM
M19-MEL melanoma
  TGI: 23.9 µM
EKVX NSCLC
  TGI: 16.5 µM
MALME-3M melanoma
  TGI: 27.5 µM
HOP-62 NSCLC
  TGI: > 100 µM
ACHN renal
  TGI: 34.1 µM
LOX IMVI melanoma
  TGI: 39.7 µM

## O=C1c2ccccc2C2CNC1(O)c1ccccc12 (centres undefined)
UACC-62 melanoma
  TGI: > 100 µM
T-47D breast
  TGI: > 100 µM
NCI-H460 lung
  TGI: > 100 µM
A498 renal
  TGI: > 100 µM
MDA-N
  TGI: > 100 µM
HL-60(TB) leukemia
  TGI: > 100 µM
OVCAR-5 ovarian
  TGI: > 100 µM
RPMI-8226 leukemia
  TGI: > 100 µM
DU-145 prostate
  TGI: > 100 µM
SK-OV-3 ovarian
  TGI: > 100 µM
TK-10 renal
  TGI: > 100 µM
SK-MEL-28 melanoma
  TGI: > 100 µM
SF-539 CNS
  TGI: > 100 µM
OVCAR-3 ovarian
  TGI: > 100 µM
NCI-H522 lung
  TGI: > 100 µM
COLO 205 colon
  TGI: > 100 µM
CAKI-1 renal
  TGI: > 100 µM
NCI/ADR-RES ovarian
  TGI: > 100 µM
HS 578T breast
  TGI: > 100 µM
CCRF-CEM leukemia
  TGI: > 100 µM
786-0 renal
  TGI: > 100 µM
U251 CNS
  TGI: > 100 µM
HCT-15 colon
  TGI: > 100 µM
K-562 leukemia
  TGI: > 100 µM
PC-3 prostate
  TGI: > 100 µM
SW-620 colon
  TGI: > 100 µM
MDA-MB-231 breast
  TGI: > 100 µM
SNB-75 CNS
  TGI: > 100 µM
MCF7 breast
  TGI: > 100 µM
IGROV1 ovarian
  TGI: > 100 µM
NCI-H226 lung
  TGI: > 100 µM
UACC-257 melanoma
  TGI: > 100 µM
M14 melanoma
  TGI: > 100 µM
SF-268 CNS
  TGI: > 100 µM
HOP-92 NSCLC
  TGI: > 100 µM
SNB-19 CNS
  TGI: > 100 µM
SK-MEL-5 melanoma
  TGI: > 100 µM
MOLT-4 leukemia
  TGI: > 100 µM
A549 NSCLC
  TGI: > 100 µM
SK-MEL-2 melanoma
  TGI: > 100 µM
HCT-116 colon
  TGI: > 100 µM
RXF 393 renal
  TGI: > 100 µM
SF-295 CNS
  TGI: > 100 µM
UO-31 renal
  TGI: > 100 µM
NCI-H23 lung
  TGI: > 100 µM
SR leukemia
  TGI: > 100 µM
SN12C renal
  TGI: > 100 µM
OVCAR-8 ovarian
  TGI: > 100 µM
OVCAR-4 ovarian
  TGI: > 100 µM
HCC-2998 colon
  TGI: > 100 µM
HT29 colon
  TGI: > 100 µM
KM12 colon
  TGI: > 100 µM
BT-549 breast
  TGI: > 100 µM
EKVX NSCLC
  TGI: > 100 µM
MALME-3M melanoma
  TGI: > 100 µM
HOP-62 NSCLC
  TGI: > 100 µM
ACHN renal
  TGI: > 100 µM
MDA-MB-435
  TGI: > 100 µM
LOX IMVI melanoma
  TGI: > 100 µM

## CCCNC1CC(n2cc(C)c(=O)[nH]c2=O)OC1CO (centres undefined)
UACC-62 melanoma
  TGI: > 100 µM
DMS 273 small cell lung
  TGI: > 100 µM
NCI-H460 lung
  TGI: > 100 µM
HL-60(TB) leukemia
  TGI: > 100 µM
RPMI-8226 leukemia
  TGI: > 100 µM
SK-OV-3 ovarian
  TGI: > 100 µM
SK-MEL-28 melanoma
  TGI: > 100 µM
SF-539 CNS
  TGI: > 100 µM
NCI-H522 lung
  TGI: > 100 µM
DMS 114 small cell lung
  TGI: > 100 µM
COLO 205 colon
  TGI: > 100 µM
CAKI-1 renal
  TGI: > 100 µM
CCRF-CEM leukemia
  TGI: > 100 µM
LXFL 529 NSCLC
  TGI: > 100 µM
786-0 renal
  TGI: > 100 µM
K-562 leukemia
  TGI: > 100 µM
SNB-75 CNS
  TGI: > 100 µM
IGROV1 ovarian
  TGI: > 100 µM
NCI-H226 lung
  TGI: > 100 µM
M14 melanoma
  TGI: > 100 µM
SF-268 CNS
  TGI: > 100 µM
HOP-92 NSCLC
  TGI: > 100 µM
SNB-78 CNS
  TGI: > 100 µM
DLD-1 colon
  TGI: > 100 µM
MOLT-4 leukemia
  TGI: > 100 µM
SK-MEL-2 melanoma
  TGI: > 100 µM
HCT-116 colon
  TGI: > 100 µM
UO-31 renal
  TGI: > 100 µM
NCI-H23 lung
  TGI: > 100 µM
SR leukemia
  TGI: > 100 µM
SN12C renal
  TGI: > 100 µM
OVCAR-4 ovarian
  TGI: > 100 µM
HCC-2998 colon
  TGI: > 100 µM
M19-MEL melanoma
  TGI: > 100 µM
MALME-3M melanoma
  TGI: > 100 µM
HOP-62 NSCLC
  TGI: > 100 µM
ACHN renal
  TGI: > 100 µM

## Cc1c2cc(Cl)ccc2n2c(=O)c3ccccc3[nH]c(=O)c12
UACC-62 melanoma
  TGI: > 100 µM
DMS 273 small cell lung
  TGI: > 100 µM
RPMI-8226 leukemia
  TGI: > 100 µM
SK-OV-3 ovarian
  TGI: > 100 µM
SK-MEL-28 melanoma
  TGI: > 100 µM
SF-539 CNS
  TGI: > 100 µM
NCI-H522 lung
  TGI: > 100 µM
DMS 114 small cell lung
  TGI: > 100 µM
COLO 205 colon
  TGI: > 100 µM
CAKI-1 renal
  TGI: > 100 µM
CCRF-CEM leukemia
  TGI: > 100 µM
LXFL 529 NSCLC
  TGI: > 100 µM
786-0 renal
  TGI: > 100 µM
K-562 leukemia
  TGI: > 100 µM
SNB-75 CNS
  TGI: > 100 µM
IGROV1 ovarian
  TGI: > 100 µM
NCI-H226 lung
  TGI: > 100 µM
M14 melanoma
  TGI: > 100 µM
SF-268 CNS
  TGI: > 100 µM
HOP-92 NSCLC
  TGI: > 100 µM
SNB-78 CNS
  TGI: > 100 µM
DLD-1 colon
  TGI: > 100 µM
MOLT-4 leukemia
  TGI: > 100 µM
SK-MEL-2 melanoma
  TGI: > 100 µM
HCT-116 colon
  TGI: > 100 µM
UO-31 renal
  TGI: > 100 µM
NCI-H23 lung
  TGI: > 100 µM
SR leukemia
  TGI: > 100 µM
OVCAR-4 ovarian
  TGI: > 100 µM
HCC-2998 colon
  TGI: > 100 µM
M19-MEL melanoma
  TGI: > 100 µM
MALME-3M melanoma
  TGI: > 100 µM
HOP-62 NSCLC
  TGI: > 100 µM
